Tests used:
Type in all cases: physicochemical
[1] = phase stability test of the crystalline forms; conditions: for phases after storage: stored at room temperature and high temperature for 14 days
Method: X-ray powder diffraction (XRPD): performed on Bruker D8 Advance diffractometer. The scan range 3-40° 20, step size 0.02020, and speed 0.2 s/step. Appropriate amounts of Crystalline Form of Compound A and Crystalline Form of Compound B in the present invention were used respectively for the phase stability test. The conditions were room temperature and high temperature (50° C.).

[2] = chemical stability test by HPLC analysis
Method: HPLC data were collected on Ultimate 3000 under the following conditions: column, YMC-Pack ODS-AQ (4.6*250 mm*5 μm); column temperature, 40° C.; flow rate, 1.5 mL/min; detection wavelength, 254 nm; injection volume 3 uL; operation time, 40 min; mobile phase, a mixture of acetonitrile: 10 mM monopotassium phosphate=1:2. 1. Appropriate amounts of entinostat and Compound A in the present invention were used respectively for HPLC analysis, the purity of the compounds and the maximum single impurity (RRT=1.403) were calculated. 2. Chemical stability tests of entinostat and Compound A in the present invention were performed. The conditions were as follows: room temperature, high temperature (40° C.), high humidity (75% RH), and acceleration (40° C.-75% RH), and the storage time is 14 days. Using HPLC analysis, the change of maximum single impurity (RRT=1.403), the change of the main ingredient level and the change of total impurities number were studied.

[3] = apparent water solubility test; conditions: for solubility at 3 min: thermodynamic from solid, apparent water solubility, water bath 25° C.±2° C., visual check for clear solution
Method: Entinostat, Compound A and Compound B in the present invention were tested for the apparent water solubility, and the operations were as follows:
Placed 3 mg of sample in a 100 mL Erlenmeyer flask in a water bath at 25° C.±2° C., added water by doubling, stirred at about 200 rpm/min, checked visually if the solution was clear. The interval between each addition of water was 3 minutes, and the maximum amount of water to add was 60 mL.

[4] = High temperature (50° C.), 7 days
[5] = High temperature (50° C.), 14 days
[6] = High temperature (40° C.), 14 days, first line so headed (r10)
[7] = High temperature, 14 days, second line so headed (r12)
[8] = Speeded-up (acceleration, 40° C.-75% RH), 14 days
[9] = High temperature (40° C.), 14 days, first line so headed (r10), listed as Entinostat
[10] = High temperature, 14 days, second line so headed (r12), listed as Entinostat
[11] = Room temperature, 0 days, listed as Entinostat
[12] = Room temperature, 14 days, listed as Entinostat
[13] = Speeded-up (acceleration, 40° C.-75% RH), 14 days, listed as Entinostat

Nc1ccccc1NC(=O)c1ccc(CNC(=O)OCc2cccnc2)cc1 [Compound A]
Crystal form after storage [1, 4]: unchanged
Crystal form after storage [1, 5]: unchanged
Crystal form after storage ([1]; Room temperature, 7 days): unchanged
Crystal form after storage ([1]; Room temperature, 14 days): unchanged
phases after storage [1]: unchanged
Main ingredient (%) [2, 6]: 99.9%
Number of impurities (≥0.04%) [2, 6]: 0
RRT = 1.403 (%) maximum single impurity [2, 6]: 0.11%
Main ingredient (%) [2, 7]: 99.9%
Number of impurities (≥0.04%) [2, 7]: 0
RRT = 1.403 (%) maximum single impurity [2, 7]: 0.11%
Main ingredient (%) ([2]; Room temperature, 0 days): 99.9%
Number of impurities (≥0.04%) ([2]; Room temperature, 0 days): 0
RRT = 1.403 (%) maximum single impurity ([2]; Room temperature, 0 days): 0.12%
Main ingredient (%) ([2]; Room temperature, 14 days): 99.9%
Number of impurities (≥0.04%) ([2]; Room temperature, 14 days): 0
RRT = 1.403 (%) maximum single impurity ([2]; Room temperature, 14 days): 0.13%
Main ingredient (%) [2, 8]: 99.9%
Number of impurities (≥0.04%) [2, 8]: 0
RRT = 1.403 (%) maximum single impurity [2, 8]: 0.13%

Nc1ccccc1NC(=O)c1ccc(CNC(=O)OCc2cccnc2)cc1.O=C(O)/C=C\C(=O)O [Compound B]
Crystal form after storage [1, 4]: unchanged
Crystal form after storage [1, 5]: unchanged
Crystal form after storage ([1]; Room temperature, 7 days): unchanged
Crystal form after storage ([1]; Room temperature, 14 days): unchanged
phases after storage [1]: unchanged
solubility at 3 min [3]: 1010 µg/mL

Nc1ccccc1NC(=O)c1ccc(CNC(=O)OCc2cccnc2)cc1 [entinostat, N-(2-aminophenyl)-4-[N-(pyridin-3-yl)methoxycarbonyllaminomethyl]benzamide]
impurity at RRT=1.403, main ingredient and number of impurities after storage ([2]; 14 days under room temperature, high temperature, high humidity and acceleration): essentially unchanged
Main ingredient (%) [2, 9]: 98.4%
Number of impurities (≥0.04%) [2, 9]: 5
RRT = 1.403 (%) maximum single impurity [2, 9]: 1.44%
Main ingredient (%) [2, 10]: 98.4%
Number of impurities (≥0.04%) [2, 10]: 5
RRT = 1.403 (%) maximum single impurity [2, 10]: 1.43%
Main ingredient (%) [2, 11]: 98.4%
Number of impurities (≥0.04%) [2, 11]: 4
RRT = 1.403 (%) maximum single impurity [2, 11]: 1.42%
Main ingredient (%) [2, 12]: 98.4%
Number of impurities (≥0.04%) [2, 12]: 4
RRT = 1.403 (%) maximum single impurity [2, 12]: 1.42%
Main ingredient (%) [2, 13]: 98.4%
Number of impurities (≥0.04%) [2, 13]: 5
RRT = 1.403 (%) maximum single impurity [2, 13]: 1.41%
solubility at 3 min [3]: < 50 µg/mL

Nc1ccccc1NC(=O)c1ccc(CNC(=O)OCc2cccnc2)cc1 [polymorph A, N-(2-aminophenyl)-4-[N-(pyridin-3-yl)methoxycarbonyllaminomethyl]benzamide]
solubility in water (in words) ([3]; finding of the inventors on prior-art polymorphs, no method given): low

From patent US11208382B2, “Entinostat-containing compound, crystal form of compound thereof, and preparation method therefor and pharmaceutical composition thereof” (Hangzhou SoliPharma Co., Ltd., priority 2017, dated 2021)
